The text below walks through data of US8242084B2, “Dimerized peptide” (Chugai Seiyaku Kabushiki Kaisha, priority 2003, dated 2012).

For the experiment, the system named is EL4-A2402/K^b cells. The experiment is described as follows: Induction of CTLs with peptide dimer: HLA-A24 transgenic mice immunised, splenocytes tested by 51Cr release assay. Type of experiment: in vivo, HLA-A24 transgenic mouse. The following applies: for CTL-inducing activity (induction of peptide-specific CTLs): HLA-A24 transgenic mouse, s.c. injection in the base of the tail, FIG. 1. As to the method: The CTL-inducing activity of the peptide dimer prepared in Example 1 was evaluated using HLA-A24 transgenic mice (Int. J. Cancer: 100, 565, 2002). The peptide dimer was dissolved in dimethyl sulfoxide (DMSO) to obtain a 40 mg/ml peptide solution. The peptide solution (35 μl) was then added to 10 mM phosphate buffer (pH 7.5) (581 μl) to obtain a peptide suspension. The resultant peptide suspension (550 μl) and Montanide ISA51 (Seppic) (700 μl) were mixed using a connected glass syringe to prepare an emulsion as an administration solution.
The administration solution (200 μl) was injected into an HLA-A24 transgenic mouse subcutaneously in the base of the tail. Three mice were used. Seven days after the injection, the spleen was removed and splenocytes were prepared. A portion of the splenocytes was pulsed with the peptide dimer (100 μg/ml) for 1 hour. Splenocytes not pulsed with the peptide were seeded into a 24-well plate at 7×10^6 cells/well and thereto were added the above-mentioned splenocytes pulsed with the peptide (1×10^6 cells/well), and the plate was incubated. The incubation was conducted in RPMI1640 medium supplemented with 10% FCS, 10 mM HEPES, 20 mM L-glutamine, 1 mM sodium pyruvate, 1 mM MEM nonessential amino acids, 1% MEM vitamin and 55 μM 2-mercaptoethanol for 5 days.
The cultured splenocytes were examined for the cytotoxic activity specific for the peptide used in the administration by ^51Cr release assay (J. Immunol.: 159, 4753, 1997). EL4-A2402/K^b cells obtained by transforming EL-4 cells (ATCC No. TIB-39) in such a manner that a chimera MHC class I molecule of HLA-A24 and H2K^b (Int. J. Cancer: 100, 565, […]) are expressed stably were used as the target cells. The target cells were labeled with ^51Cr (3.7 MBq/10^6 cells) and pulsed with the peptide at 100 μg/ml for an hour. For control, target cells not pulsed with the peptide were labeled with ^51Cr for 2 hours. Those labeled target cells and the previously prepared splenocytes were mixed at a ratio of 1:120, cultured for 4 hours and the CTL activity was evaluated on the basis of the percent of damaged target cells.

Bridge positions count the residues as written; N and C are the ends. I, II: the chains in the order shown.

“Example 1: Dimer of two H-Cys-Tyr-Thr-Trp-Asn-Gln-Met-Asn-Leu-OH (SEQ ID NO:44) monomers, made by air oxidation, bound through a disulfide bond (chain 1 H-CYTWNQMNL-OH; chain 2 H-CYTWNQMNL-OH; disulfide I:1-II:1; SMILES CSCC[C@H](NC(=O)[C@H](CCC(N)=O)NC(=O)[C@H](CC(N)=O)NC(=O)[C@H](Cc1c[nH]c2ccccc12)NC(=O)[C@@H](NC(=O)[C@H](Cc1ccc(O)cc1)NC(=O)[C@@H](N)CSSC[C@H](N)C(=O)N[C@@H](Cc1ccc(O)cc1)C(=O)N[C@H](C(=O)N[C@@H](Cc1c[nH]c2ccccc12)C(=O)N[C@@H](CC(N)=O)C(=O)N[C@@H](CCC(N)=O)C(=O)N[C@@H](CCSC)C(=O)N[C@@H](CC(N)=O)C(=O)N[C@@H](CC(C)C)C(=O)O)[C@@H](C)O)[C@@H](C)O)C(=O)N[C@@H](CC(N)=O)C(=O)N[C@@H](CC(C)C)C(=O)O)”: the “CTL-inducing activity (induction of peptide-specific CTLs)” value is recorded as “CTLs specific for the peptide were induced”. For the same substance, the “CTL-inducing activity (induction of peptide-specific CTLs)” value (listed as peptide dimer (SEQ ID NO: 44)) is on record as “induces CTLs”. Further, the “cytotoxic activity of splenocytes on target cells not pulsed with the peptide (control)” value (same splenocytes, target cells not pulsed with the peptide, ratio 1:120, 4 hours) is recorded as “only weak cytotoxicity”. Where the note is “splenocytes from mice injected s.c. with emulsion (Montanide ISA51), 7 days, target cells pulsed with peptide 100 μg/ml, target:splenocyte ratio 1:120, 4 hours”, the “cytotoxic activity of splenocytes on target cells pulsed with the peptide (percent of damaged target cells)” value was “injured strongly”.
